Data published in patent US9849104B2 (Gemphire Therapuetics Inc., priority 2015, dated 2017).
Read-outs that look alike come from different tables or passages of the source.

Key:
CYP2D6 = biological target: T1, CYP2D6 (Homo sapiens, UniProt P10635); test: Inhibition of CYP2D6 (demethylation of dextromethorphan) in human liver microsomes; format: in vitro ADME; conditions: probe dextromethorphan (O-demethylation), 5 μM, read-out: inhibitory activity toward CYP2D6
T1 construct: Human livers, HLM141, HLM143, and HLM144 were selected from the University of Washington Human Liver Bank for this study; Microsomes were prepared; tissue University of Washington Human Liver Bank HLM141, HLM143, HLM144; host or cells: human liver microsomes
Protocol: (§1) Human livers, HLM141, HLM143, and HLM144 were selected from the University of Washington Human Liver Bank for this study. […] The seven isoforms and the metabolic pathway of each of the probes used to monitor specific isoform activity are listed below.
CYP2D6: The 0-demethylation of dextromethorphan (5 μM). The reaction is monitored by high performance liquid chromatography (HPLC) using florescence detection.

[1] = tested on: STAM model of non-alcoholic steatohepatitis (NASH); conditions: for Fasting blood glucose (mean ± SD): Day 18, 8 hours of fasting; for Non-fasting blood glucose (mean ± SD): termination (Day 21); for Plasma GGT (mean ± SD) / Plasma creatinine (mean ± SD) / Plasma ALP (mean ± SD): mouse, in vivo, po
Protocol: Telmisartan (Micardis®) was purchased from Boehringer Ingelheim GmbH (Germany) and dissolved in pure water.
Telmisartan was administered at a dose of 10 mg/kg once daily.
Eight-hour fasting blood glucose was measured in whole blood using Life Check (EIDIA Co. Ltd., Japan). For plasma biochemistry, eight-hour fasting blood was collected in polypropylene tubes with anticoagulant (Novo-Heparin, Mochida Pharmaceutical, Japan) and centrifuged at 1,000×g for 15 minutes at 4° C. The supernatant was collected and stored at −80° C. until use. Plasma insulin levels were quantified by Ultra Sensitive Mouse Insulin ELISA kit (Morinaga Institute of Biological Science, Inc., Japan).
On the day of termination, non-fasting blood glucose was measured in whole blood using Life Check. For plasma biochemistry, non-fasting blood was collected in polypropylene tubes with anticoagulant (Novo-Heparin) and centrifuged at 1,000×g for 15 minutes at 4° C. The supernatant was collected and stored at −80° C. until use. Plasma ALT, AST, ALP, GGT, BUN, creatinine and total bilirubin levels were measured by FUJI DRI-CHEM 7000 (Fujifilm Corporation, Japan). Plasma ketone body levels were quantified by EnzyChrom™ Ketone Body Assay Kit (BioAssay Systems, USA).
Liver samples were homogenized in chloroform-methanol (2:1, v/v) and incubated overnight at room temperature. After washing with chloroform-methanol-water (8:4:3, v/v/v), the extracts were evaporated to dryness, and dissolved in isopropanol. Liver triglyceride content was measured by Triglyceride E-test (Wako Pure Chemical Industries). […]
Statistical analyses were performed using Bonferroni Multiple Comparison Test on GraphPad Prism 6 (GraphPad Software Inc., USA). […] Results were expressed as mean±SD.
The viability, clinical signs and behavior were monitored daily. Body weight was recorded before the treatment. […] The animals were sacrificed by exsanguinations through direct cardiac puncture under isoflurane anesthesia (Pfizer Inc.) at 9 weeks of age.

[2] = tested on: CYP1A2, CYP2A6, CYP2C9, CYP2C19, CYP2D6, CYP2E1, CYP3A4; test: in vitro; conditions: human, microsomes
From the text: as §1, with “study. […] The actual concentrations used for each of the other probes are specified below.” for “study.”

[3] = gemcabene 300 and 900 mg QD with atorvastatin 80 mg QD
CYP2E1 = biological target: T2, CYP2E1 (Homo sapiens, UniProt P05181); test: Inhibition of CYP2E1 (p-nitrocatechol from p-nitrophenol) in human liver microsomes; format: in vitro ADME; conditions: 1500 μM
T2 construct: Human livers, HLM141, HLM143, and HLM144 were selected from the University of Washington Human Liver Bank for this study; Microsomes were prepared; tissue University of Washington Human Liver Bank HLM141, HLM143, HLM144; host or cells: human liver microsomes
Protocol: as §1
CYP2E1: The formation of p-nitrocatechol from p-nitrophenol (40 μM). Amounts of product formed are monitored by HPLC.

[4] = Musculoskeletal adverse events, study A4141001; format: in vivo, human
[5] = Effect of gemcabene on simvastatin pharmacokinetics (active HMG-Co-A reductase inhibitor concentration); format: in vivo, human; conditions: simvastatin alone vs in combination with gemcabene
CYP2A6 = biological target: T3, CYP2A6 (Homo sapiens, UniProt P11509); test: Inhibition of CYP2A6 (7-hydroxylation of coumarin) in human liver microsomes; format: in vitro ADME; conditions: probe coumarin (7-hydroxylation), 4 μM, read-out: inhibitory activity toward CYP2A6
T3 construct: Human livers, HLM141, HLM143, and HLM144 were selected from the University of Washington Human Liver Bank for this study; Microsomes were prepared; tissue University of Washington Human Liver Bank HLM141, HLM143, HLM144; host or cells: human liver microsomes
T3 sequence (P11509 1-494): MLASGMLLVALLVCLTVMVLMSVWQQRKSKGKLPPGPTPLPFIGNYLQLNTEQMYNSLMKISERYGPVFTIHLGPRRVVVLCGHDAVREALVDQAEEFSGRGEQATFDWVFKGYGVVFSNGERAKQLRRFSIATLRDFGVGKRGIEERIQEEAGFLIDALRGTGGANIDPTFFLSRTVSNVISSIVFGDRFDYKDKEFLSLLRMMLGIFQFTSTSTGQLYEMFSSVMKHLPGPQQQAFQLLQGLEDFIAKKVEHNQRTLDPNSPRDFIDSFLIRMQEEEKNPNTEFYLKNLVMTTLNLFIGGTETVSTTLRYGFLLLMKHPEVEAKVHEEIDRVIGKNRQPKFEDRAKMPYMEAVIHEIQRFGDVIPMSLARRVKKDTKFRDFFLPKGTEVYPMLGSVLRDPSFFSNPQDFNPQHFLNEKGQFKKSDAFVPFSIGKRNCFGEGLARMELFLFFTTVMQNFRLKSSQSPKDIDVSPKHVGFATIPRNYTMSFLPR
Protocol: as §1
CYP2A6: The 7-hydroxylation of coumarin (4 μM). The reaction is monitored by HPLC using florescence detection.

[6] = STAM NASH mice, 30 mg/kg PO QD, 30 mg/kg
[7] = STAM NASH mice, 100 mg/kg PO QD, 100 mg/kg
[8] = STAM NASH mice, 100 mg/kg PO QD, Day 21, 100 mg/kg
[9] = STAM NASH mice, 300 mg/kg PO QD, 300 mg/kg
[10] = A4141001, patient type IIa + IIb

T1 sequence (P10635 whole entry): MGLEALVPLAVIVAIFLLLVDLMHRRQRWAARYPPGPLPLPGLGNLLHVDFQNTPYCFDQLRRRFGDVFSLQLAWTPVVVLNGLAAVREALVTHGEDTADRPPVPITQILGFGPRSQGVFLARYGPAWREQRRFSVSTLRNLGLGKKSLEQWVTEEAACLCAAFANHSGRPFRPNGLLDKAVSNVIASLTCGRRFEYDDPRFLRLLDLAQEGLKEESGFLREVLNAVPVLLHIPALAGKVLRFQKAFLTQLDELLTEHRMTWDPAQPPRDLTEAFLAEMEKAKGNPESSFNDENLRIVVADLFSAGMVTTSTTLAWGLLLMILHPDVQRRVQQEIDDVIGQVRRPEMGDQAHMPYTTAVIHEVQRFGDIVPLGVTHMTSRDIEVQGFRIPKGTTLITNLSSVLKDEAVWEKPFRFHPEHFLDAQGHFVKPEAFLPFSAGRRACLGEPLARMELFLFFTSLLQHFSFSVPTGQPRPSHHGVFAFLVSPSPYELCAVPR
T2 sequence (P05181 whole entry): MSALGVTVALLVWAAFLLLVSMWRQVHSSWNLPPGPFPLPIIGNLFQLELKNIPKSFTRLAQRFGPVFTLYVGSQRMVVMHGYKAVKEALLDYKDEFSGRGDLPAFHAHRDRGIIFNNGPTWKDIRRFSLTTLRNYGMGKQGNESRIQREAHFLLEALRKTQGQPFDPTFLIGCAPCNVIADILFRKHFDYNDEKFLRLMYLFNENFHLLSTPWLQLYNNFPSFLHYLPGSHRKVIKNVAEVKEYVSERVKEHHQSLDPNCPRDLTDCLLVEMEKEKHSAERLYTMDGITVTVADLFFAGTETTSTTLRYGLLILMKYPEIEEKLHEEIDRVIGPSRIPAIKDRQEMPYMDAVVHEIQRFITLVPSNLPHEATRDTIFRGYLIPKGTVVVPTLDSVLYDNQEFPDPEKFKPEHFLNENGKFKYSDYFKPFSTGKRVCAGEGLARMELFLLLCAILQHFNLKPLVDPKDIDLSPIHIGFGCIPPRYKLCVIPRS

CC(C)(CCCCOCCCCC(C)(C)C(=O)O)C(=O)O [Gemcabene, 6,6′-oxybis(2,2-dimethylhexanoic acid)]
inhibition at 1500 µM (CYP2D6): 10 to 20%
NAFLD Activity score, NAS (mean ± SD) ([1]; STAM NASH mice, 30 mg/kg PO QD 6-9 wks, 30 mg/kg): significant reduction
Fasting blood glucose (mean ± SD) [1, 6]: no significant differences
Liver triglyceride (mean ± SD) ([1]; STAM NASH mice, 30 mg/kg PO QD, Day 21, 30 mg/kg): no significant differences
Non-fasting blood glucose (mean ± SD) [1, 6]: no significant differences
Fasting blood glucose (mean ± SD) [1, 7]: no significant differences
Liver triglyceride (mean ± SD) [1, 8]: no significant differences
Plasma ALT (mean ± SD) [1, 8]: significant decrease
Non-fasting blood glucose (mean ± SD) [1, 7]: no significant differences
NAFLD Activity score, NAS (mean ± SD) ([1]; STAM NASH mice, 300 mg/kg PO QD 6-9 wks, 300 mg/kg): significant reduction
Fasting blood glucose (mean ± SD) [1, 9]: no significant differences
Liver triglyceride (mean ± SD) ([1]; STAM NASH mice, 300 mg/kg PO QD, Day 21, 300 mg/kg): no significant differences
Non-fasting blood glucose (mean ± SD) [1, 9]: no significant differences
fibrosis area compared with the Vehicle in NASH group ([1]; STAM NASH mice, all treatment groups (gemcabene 30, 100, 300 mg/kg; telmisartan 10 mg/kg)): significantly reduced
Plasma GGT (mean ± SD) ([1]; 30 mg/kg): 1 ± 0 U/L
Plasma creatinine (mean ± SD) ([1]; 30 mg/kg): 0.1 ± 0.0 mg/dL
Plasma ALP (mean ± SD) ([1]; 100 mg/kg): significant increases
Plasma GGT (mean ± SD) ([1]; 100 mg/kg): 1 ± 0 U/L
Plasma ALP (mean ± SD) ([1]; 300 mg/kg): significant increases
Plasma GGT (mean ± SD) ([1]; 300 mg/kg): 1 ± 0 U/L
Plasma creatinine (mean ± SD) ([1]; 300 mg/kg): significant increase
IC50 [2]: > 454 µg/mL
effect on atorvastatin pharmacokinetics (Cmax, tmax, AUC(0-24), t½, atorvastatin and metabolites) [3]: no clinically important effect
CYP2E1 activity enhanced (CYP2E1): about 20%
% = the percent of patients experiencing a musculoskeletal adverse event ([4]; A4141001, patient type IIa): 0.0%
No = the number of muscle skeletal adverse events ([4]; A4141001, patient type IIa): 0
% = the percent of patients experiencing a musculoskeletal adverse event [4, 10]: 0.0%
No = the number of muscle skeletal adverse events [4, 10]: 0
% = the percent of patients experiencing a musculoskeletal adverse event ([4]; A4141001, patient type IIb): 0.0%
No = the number of muscle skeletal adverse events ([4]; A4141001, patient type IIb): 0
effect on active HMG-Co-A reductase inhibitor pharmacokinetics after simvastatin (80 mg) [5]: lowers Cmax but has no effect on AUC
inhibition at 1500 µM (CYP2A6): 10 to 20%
